Assay results published in patent US12485169B2, “Compounds” (GREY WOLF THERAPEUTICS LIMITED, priority 2018, dated 2025).

Each compound was assayed against T1, Purified ERAP1 (37-941)-10His (ERAP1) (Homo sapiens, UniProt Q9NZ08) (assay: ERAP1 mediated hydrolysis of an amide substrate (10-mer inhibition assay), biochemical system). Conditions: 10-mer substrate, 23° C., 1 h, excitation 279 nm / emission 355 nm; read-out: IC50 vs Decapeptide WRVYEKC(Dnp)ALK-acid (where Dnp is Dinitrophenyl maleimide) (10-mer).
T1 construct: Purified ERAP1 (37-941)-10His (ERAP1)
T1 sequence (Q9NZ08 37-941): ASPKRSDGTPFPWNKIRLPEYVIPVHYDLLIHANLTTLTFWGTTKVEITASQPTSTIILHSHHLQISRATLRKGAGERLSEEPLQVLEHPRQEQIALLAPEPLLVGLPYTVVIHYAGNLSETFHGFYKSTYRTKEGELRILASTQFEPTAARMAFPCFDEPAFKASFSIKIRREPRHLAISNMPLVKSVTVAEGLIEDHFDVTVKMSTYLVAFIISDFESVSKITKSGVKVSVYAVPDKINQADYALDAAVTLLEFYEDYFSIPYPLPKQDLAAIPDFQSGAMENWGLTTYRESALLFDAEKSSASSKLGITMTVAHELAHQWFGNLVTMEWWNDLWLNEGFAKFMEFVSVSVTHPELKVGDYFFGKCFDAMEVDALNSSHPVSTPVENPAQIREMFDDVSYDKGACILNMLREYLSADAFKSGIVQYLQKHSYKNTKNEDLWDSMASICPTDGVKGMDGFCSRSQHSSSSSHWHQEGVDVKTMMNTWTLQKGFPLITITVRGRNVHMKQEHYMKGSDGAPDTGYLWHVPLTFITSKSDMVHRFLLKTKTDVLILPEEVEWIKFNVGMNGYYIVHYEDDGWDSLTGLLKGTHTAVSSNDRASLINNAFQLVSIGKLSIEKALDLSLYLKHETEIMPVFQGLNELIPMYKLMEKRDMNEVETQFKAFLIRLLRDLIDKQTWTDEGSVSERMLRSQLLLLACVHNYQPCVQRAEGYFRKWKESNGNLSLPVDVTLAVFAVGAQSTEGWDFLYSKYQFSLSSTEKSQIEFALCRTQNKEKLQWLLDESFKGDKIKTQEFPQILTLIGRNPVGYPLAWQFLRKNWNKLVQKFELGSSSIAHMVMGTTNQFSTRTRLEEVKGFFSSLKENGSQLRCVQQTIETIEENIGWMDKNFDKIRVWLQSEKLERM

IC50, < 500 nM:
CCc1ccc(C(=O)O)cc1S(=O)(=O)Nc1cc(-c2cnoc2)ccc1N1CCCCC1 [Example 297, 4-ethyl-3-(N-(5-(isoxazol-4-yl)-2-(piperidin-1-yl)phenyl)sulfamoyl)benzoic acid]
CCc1ccc(C(=O)O)cc1S(=O)(=O)Nc1cc(-c2c[nH]nn2)ccc1N1CCCCC1 [Example 298, 4-ethyl-3-(N-(2-(piperidin-1-yl)-5-(1,2,3-triazol-4-yl)phenyl)sulfamoyl)benzoic acid]
CCc1ccc(C(=O)O)cc1S(=O)(=O)Nc1cc(-c2nnco2)ccc1N1CCCCC1 [Example 299]
CCc1ccc(C(=O)O)cc1S(=O)(=O)Nc1cc(-c2ccno2)ccc1N1CCCCC1 [Example 300, 4-ethyl-3-(N-(5-(isoxazol-5-yl)-2-(piperidin-1-yl)phenyl)sulfamoyl)benzoic acid]
CCc1ccc(C(=O)O)cc1S(=O)(=O)Nc1cc(-c2cn[nH]c2)ccc1N1CCCCC1 [Example 301, 4-ethyl-3-(N-(2-(piperidin-1-yl)-5-(pyrazol-4-yl)phenyl)sulfamoyl)benzoic acid]
CCc1ccc(C(=O)O)cc1S(=O)(=O)Nc1cc(-c2ccnnc2)ccc1N1CCCCC1 [Example 302, 4-ethyl-3-(N-(2-(piperidin-1-yl)-5-(pyridazin-4-yl)phenyl)sulfamoyl)benzoic acid]
CCc1ccc(C(=O)O)cc1S(=O)(=O)Nc1cc(-c2cnoc2C)c(C)cc1N1CCCCC1 [Example 303, 4-ethyl-3-(N-(4-methyl-5-(5-methylisoxazol-4-yl)-2-(piperidin-1-yl)phenyl)sulfamoyl)benzoic acid]
CCc1ccc(C(=O)O)cc1S(=O)(=O)Nc1cc(-c2cnoc2C)c(F)cc1N1CCCCC1 [Example 304, 4-ethyl-3-(N-(4-fluoro-5-(5-methylisoxazol-4-yl)-2-(piperidin-1-yl)phenyl)sulfamoyl)benzoic acid]
CCc1ccc(C(=O)O)cc1S(=O)(=O)Nc1c(N2CCCCC2)ccc(-c2cnoc2C)c1F [Example 305, 4-ethyl-3-(N-(2-fluoro-3-(5-methylisoxazol-4-yl)-6-(piperidin-1-yl)phenyl)sulfamoyl)benzoic acid]
CCc1ccc(C(=O)O)cc1S(=O)(=O)Nc1cc(-c2cnoc2C)c(Cl)cc1N1CCCCC1 [Example 306, 4-ethyl-3-(N-(4-Chloro-5-(5-methylisoxazol-4-yl)-2-(piperidin-1-yl)phenyl)sulfamoyl)benzoic acid]
CCc1ccc(C(=O)O)cc1S(=O)(=O)Nc1cc(S(C)(=O)=O)ccc1N1CCC(F)(F)CC1 [Example 308, 3-(N-(2-(4,4-difluoropiperidin-1-yl)-5-(methylsulfonyl)phenyl)sulfamoyl)-4-ethylbenzoic acid]
CS(=O)(=O)c1ccc(N2CCC(F)(F)CC2)c(NS(=O)(=O)c2cc(C(=O)O)ccc2C2CC2)c1 [Example 309, 4-cyclopropyl-3-(N-(2-(4,4-difluoropiperidin-1-yl)-5-(methylsulfonyl)phenyl)sulfamoyl)benzoic acid]
N#Cc1ccc(N2CCC(F)(F)CC2)c(NS(=O)(=O)c2cc(C(=O)O)ccc2C2CC2)c1 [Example 310, 3-(N-(5-cyano-2-(4,4-difluoropiperidin-1-yl)phenyl)sulfamoyl)-4-cyclopropylbenzoic acid]
CCc1ccc(C(=O)O)cc1S(=O)(=O)Nc1cc(C#N)ccc1N1CCC[C@@H](F)C1 [Example 311, I-3-(N-(5-cyano-2-(3-fluoropiperidin-1-yl)phenyl)sulfamoyl)-4-ethylbenzoic]
N#Cc1ccc(N2CCC[C@@H](F)C2)c(NS(=O)(=O)c2cc(C(=O)O)ccc2C2CC2)c1 [Example 312, I-3-(N-(5-cyano-2-(3-fluoropiperidin-1-yl)phenyl)sulfamoyl)-4-cyclopropylbenzoic acid]
CCc1ccc(C(=O)O)cc1S(=O)(=O)Nc1cc(S(C)(=O)=O)ccc1N1CCCC(F)(F)C1 [Example 313, 3-(N-(2-(3,3-difluoropiperidin-1-yl)-5-(methylsulfonyl)phenyl)sulfamoyl)-4-ethylbenzoic acid]
O=C(O)c1ccc(C2CC2)c(S(=O)(=O)Nc2cc(C(F)(F)F)ccc2N2CCC[C@@H](O)C2)c1 [Example 314, I-4-cyclopropyl-3-(N-(2-(3-hydroxypiperidin-1-yl)-5-(trifluoromethyl)phenyl)sulfamoyl)benzoic acid]
N#CC1CCN(c2ccc(C(F)(F)F)cc2NS(=O)(=O)c2cc(C(=O)O)ccc2C2CC2)CC1 [Example 315, 3-(N-(2-(4-cyanopiperidin-1-yl)-5-(trifluoromethyl)phenyl)sulfamoyl)-4-cyclopropylbenzoic acid]
N#Cc1ccc(N2CCCC(F)(F)C2)c(NS(=O)(=O)c2cc(C(=O)O)ccc2C2CC2)c1 [Example 316, 3-(N-(5-cyano-2-(3,3-difluoropiperidin-1-yl)phenyl)sulfamoyl)-4-cyclopropylbenzoic acid]
CCc1ccc(C(=O)O)cc1S(=O)(=O)Nc1cc(S(C)(=O)=O)ccc1N1CCC(F)CC1 [Example 317, 4-ethyl-3-(N-(2-(4-fluoropiperidin-1-yl)-5-(methylsulfonyl)phenyl)sulfamoyl)benzoic acid]
CCc1ccc(C(=O)O)cc1S(=O)(=O)Nc1cc(C#N)ccc1N1CCC(F)CC1 [Example 318, 3-(N-(5-cyano-2-(4-fluoropiperidin-1-yl)phenyl)sulfamoyl)-4-ethylbenzoic acid]
CS(=O)(=O)c1ccc(N2CCCC(F)(F)C2)c(NS(=O)(=O)c2cc(C(=O)O)ccc2C2CC2)c1 [Example 319, 4-cyclopropyl-3-(N-(2-(3,3-difluoropiperidin-1-yl)-5-(methylsulfonyl)phenyl)sulfamoyl)benzoic acid]
CS(=O)(=O)c1ccc(N2CCC(F)CC2)c(NS(=O)(=O)c2cc(C(=O)O)ccc2C2CC2)c1 [Example 320, 4-cyclopropyl-3-(N-(2-(4-fluoropiperidin-1-yl)-5-(methylsulfonyl)phenyl)sulfamoyl)benzoic acid]
CS(=O)(=O)c1ccc(N2CCC[C@@H](F)C2)c(NS(=O)(=O)c2cc(C(=O)O)ccc2C2CC2)c1 [Example 321, I-4-cyclopropyl-3-(N-(2-(3-fluoropiperidin-1-yl)-5-(methylsulfonyl)phenyl)sulfamoyl)benzoic acid]
N#Cc1ccc(N2CCC(F)CC2)c(NS(=O)(=O)c2cc(C(=O)O)ccc2C2CC2)c1 [Example 322, 3-(N-(5-cyano-2-(4-fluoropiperidin-1-yl)phenyl)sulfamoyl)-4-cyclopropylbenzoic acid]
O=C(O)c1ccc(C2CC2)c(S(=O)(=O)Nc2cc(-n3cnnn3)ccc2N2CCCCC2)c1 [Example 323, 4-cyclopropyl-3-(N-(2-(piperidin-1-yl)-5-(tetrazol-1-yl)phenyl)sulfamoyl)benzoic acid]
N#Cc1cc(NS(=O)(=O)c2cc(C(=O)O)ccc2C2CC2)c(N2CCCCC2)cc1F [Example 324, 3-(N-(5-cyano-4-fluoro-2-(piperidin-1-yl)phenyl)sulfamoyl)-4-cyclopropylbenzoic acid]
